In the assay the test system is STAT3 signaling. Nature of the assay: STAT3 Luciferase reporter gene assay. In kind it is cell-based. The conditions noted are these: Homo sapiens; STAT3 reporter/HEK293 cell line, 1 h pretreatment, IL-6 induced for 16 h, luciferase activity; read-out: IC50. As to the method:
The ability to inhibit STAT3 signaling of the example compounds in comparison to galiellalactone was evaluated using a STAT3 Luciferase reporter gene assay.
Compounds were tested for dose response activity to determine IC50 at eight different doses (0.03, 0.1, 0.3, 1, 3, 10, 30 and 100 μM) in triplicate on the STAT3 reporter system.
Briefly, the STAT3 reporter/HEK293 cell line was plated in 96-well white plates for 16 h. Cells were pretreated with compounds for 1 h. Cells were then treated with IL-6 to induce STAT3 activation for 16 h. Luciferase activity was measured and analyzed.

For orientation: IC50 means the concentration that inhibits the measured activity by half. In the case of `C[C@]1(NS(=O)(=O)c2ccccc2)C=C2C(=O)O[C@@H]3CCC(C1)[C@]23O` (stereo partly drawn) [Example 2, N-[(4R,7R,9R,11S)-11-Hydroxy-9-methyl-2-oxo-3-oxatricyclo[5.3.1.0^4,^11]undec-1(10)-en-9-yl]benzenesulfonamide], the IC50 is 3 µM.

Turning to `COc1ccc(S(=O)(=O)N[C@@]2(C)C=C3C(=O)O[C@@H]4CCC(C2)[C@]34O)cc1` (stereo partly drawn) [Example 3, N-[(4R,7R,9R,11S)-11-Hydroxy-9-methyl-2-oxo-3-oxatricyclo[5.3.1.0^4,^11]undec-1(10)-en-9-yl]-4-methoxybenzene-1-sulfonamide], the IC50 is 8.41 µM.

Turning to `C[C@]1(NS(=O)(=O)c2ccccc2[N+](=O)[O-])C=C2C(=O)O[C@@H]3CCC(C1)[C@]23O` (stereo partly drawn) [Example 4, N-[(4R,7R,9R,11S)-11-Hydroxy-9-methyl-2-oxo-3-oxatricyclo[5.3.1.0^4,^11]undec-1(10)-en-9-yl]-2-nitrobenzene-1-sulfonamide], the half-maximal inhibitory concentration (IC50) stood at 6.71 µM.

Turning to `C[C@]1(NS(=O)(=O)c2ccc(C(F)(F)F)cc2)C=C2C(=O)O[C@@H]3CCC(C1)[C@]23O` (stereo partly drawn) [Example 5, N-[(4R,7R,9R,11S)-11-Hydroxy-9-methyl-2-oxo-3-oxatricyclo[5.3.1.0^4,^11]undec-1(10)-en-9-yl]-4-(trifluoromethyl)benzene-1-sulfonamide], the IC50 came out at 1.76 µM.

As for `Cc1cccc(S(=O)(=O)N[C@@]2(C)C=C3C(=O)O[C@@H]4CCC(C2)[C@]34O)c1` (stereo partly drawn) [Example 6, N-[(4R,7R,9R,11S)-11-Hydroxy-9-methyl-2-oxo-3-oxatricyclo[5.3.1.0^4,^11]undec-1(10)-en-9-yl]-3-methylbenzene-1-sulfonamide], the IC50 turned out to be 6.76 µM.

For the compound `C[C@]1(NS(=O)(=O)c2ccccc2F)C=C2C(=O)O[C@@H]3CCC(C1)[C@]23O` (stereo partly drawn) [Example 7, 2-Fluoro-N-[(4R,7R,9R,11S)-11-hydroxy-9-methyl-2-oxo-3-oxatricyclo[5.3.1.0^4,^11]undec-1(10)-en-9-yl]benzene-1-sulfonamide], the IC50 worked out at 4.69 µM.

With `C[C@]1(NS(=O)(=O)c2ccc([N+](=O)[O-])cc2)C=C2C(=O)O[C@@H]3CCC(C1)[C@]23O` (stereo partly drawn) [Example 8, N-[(4R,7R,9R,11S)-11-Hydroxy-9-methyl-2-oxo-3-oxatricyclo[5.3.1.0^4,^11]undec-1(10)-en-9-yl]-4-nitrobenzene-1-sulfonamide], the IC50 was found to be 5.05 µM.

For `C[C@]1(NS(=O)(=O)c2ccc(C#N)cc2)C=C2C(=O)O[C@@H]3CCC(C1)[C@]23O` (stereo partly drawn) [Example 9, 4-Cyano-N-[(4R,7R,9R,11S)-11-hydroxy-9-methyl-2-oxo-3-oxatricyclo[5.3.1.0^4,^11]undec-1(10)-en-9-yl]benzene-1-sulfonamide], the IC50 was 9.31 µM.

Take `C[C@]1(NS(=O)(=O)c2ccc(Br)cc2)C=C2C(=O)O[C@@H]3CCC(C1)[C@]23O` (stereo partly drawn) [Example 10, 4-Bromo-N-[(4R,7R,9R,11S)-11-hydroxy-9-methyl-2-oxo-3-oxatricyclo[5.3.1.0^4,^11]undec-1(10)-en-9-yl]benzene-1-sulfonamide]: the IC50 stood at 3.2 µM.

For the compound `C[C@]1(NS(=O)(=O)c2ccc(C3=NCCO3)cc2)C=C2C(=O)O[C@@H]3CCC(C1)[C@]23O` (stereo partly drawn) [Example 11, 4-(4,5-Dihydro-1,3-oxazol-2-yl)-N-[(4R,7R,9R,11S)-11-hydroxy-9-methyl-2-oxo-3-oxatricyclo[5.3.1.0^4,^11]undec-1(10)-en-9-yl]benzene-1-sulfonamide], the IC50 came out at 0.24 µM.

In the case of `Cc1ccc(S(=O)(=O)N[C@@]2(C)C=C3C(=O)O[C@@H]4CCC(C2)[C@]34O)nc1` (stereo partly drawn) [Example 12, N-[(4R,7R,9R,11S)-11-Hydroxy-9-methyl-2-oxo-3-oxatricyclo[5.3.1.0^4,^11]undec-1(10)-en-9-yl]-5-methylpyridine-2-sulfonamide], the IC50 was 3.38 µM.

For the origin of these results see patent publication US10781197B2, “Sulfonamide analogues of galiellalactone” (GLACTONE PHARMA DEVELOPMENT AB, priority 2016, dated 2020).
